In PubChem BioAssay (NCI):
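Exposure lasted 48 hours, with cells grown in 96-well plates and compounds tested at five concentrations. GI50 is the concentration that inhibits growth by half. TGI: total growth inhibition.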

Assays:
Assay in all cases: NCI anticancer screen, dose series, 48 h
[1] = tested on: IGROV1 ovarian
[2] = tested on: KM12 colon
[3] = tested on: OVCAR-4 ovarian
[4] = tested on: OVCAR-8 ovarian
[5] = tested on: RXF 393 renal
[6] = tested on: SF-295 CNS
[7] = tested on: SK-MEL-2 melanoma
[8] = tested on: SNB-19 CNS
[9] = tested on: SNB-75 CNS

With O=[N+]([O-])C(=C1c2ccccc2-c2ccccc21)[N+](=O)[O-] the TGI [1] was > 100 µM, the TGI [2] was > 100 µM and the TGI [3] was > 100 µM. For the same molecule, the TGI [4] was > 100 µM, the TGI [5] was > 100 µM and the TGI [6] was > 10 µM. For the same molecule, the TGI [7] was > 100 µM and the TGI [8] was > 100 µM.

For N/N=C1\C(=O)N(c2ccc(Cl)c(Cl)c2)C(=O)C1C(=O)Nc1ccc(Cl)c(Cl)c1 (stereo not drawn), the TGI [1] was > 100 µM, the TGI [2] was > 100 µM and the TGI [3] was > 100 µM. The TGI [4] was > 100 µM, the TGI [5] was > 100 µM and the TGI [6] was > 100 µM. For the same molecule, the TGI [7] was > 100 µM, the TGI [8] was > 100 µM and the TGI [9] was > 100 µM.

With Cc1c(C(=O)Nc2ccc(Oc3ccnc4cc(OCC(C)(C)O)ccc34)c(F)c2)c(=O)n(-c2ccccc2)n1C the GI50 [2] was 0.226 µM, the TGI [2] was > 100 µM and the GI50 [5] was 2.72 µM. For the same molecule, the TGI [5] was > 100 µM, the GI50 [6] was 0.782 µM and the TGI [6] was > 100 µM. For the same molecule, the GI50 [8] was 7.23 µM, the TGI [8] was > 100 µM and the GI50 [9] was 2.93 µM. The TGI [9] was > 100 µM.

With NNC(=O)C(=O)N/N=C1\CCCC1C(=O)CCC(=O)Nc1cccc(Cl)c1 (stereo not drawn) the TGI [1] was > 100 µM, the TGI [2] was > 100 µM and the TGI [3] was > 100 µM. For the same molecule, the TGI [4] was > 100 µM, the TGI [5] was > 100 µM and the TGI [6] was > 100 µM. For the same molecule, the TGI [7] was > 100 µM, the TGI [8] was > 100 µM and the TGI [9] was > 100 µM.

In the case of Nc1ncnc2c1ncn2C1(CO)OC(CO)C(O)C1O (stereo not drawn), the TGI [2] is reported as > 100 µM, the TGI [3] is reported as > 100 µM and the TGI [5] is reported as > 100 µM. The TGI [6] was > 100 µM, the TGI [7] was > 100 µM and the TGI [8] was > 100 µM. The TGI [9] was > 100 µM.

For Cc1ccc(C)c(NC(=O)C(=O)C(C2C(C)CC(=O)C2CC(=O)O)[N+](=O)[O-])c1 (stereo not drawn), the TGI [1] was > 100 µM, the TGI [2] was > 100 µM and the TGI [3] was > 100 µM. The TGI [5] was > 100 µM, the TGI [6] was > 100 µM and the TGI [7] was > 100 µM. The TGI [8] was > 100 µM and the TGI [9] was > 100 µM.

With CCCOC(=O)C1C(c2ccc(OC)cc2)NC(c2ccc(OC)cc2)C(C(=O)OCCC)S1(=O)=O (stereo not drawn) the GI50 [1] was > 100 µM, the TGI [1] was > 100 µM and the GI50 [2] was > 100 µM. The TGI [2] was > 100 µM, the GI50 [3] was > 100 µM and the TGI [3] was > 100 µM. For the same molecule, the GI50 [4] was > 100 µM, the TGI [4] was > 100 µM and the GI50 [5] was > 100 µM. For the same molecule, the TGI [5] was > 100 µM, the GI50 [6] was > 100 µM and the TGI [6] was > 100 µM. For the same molecule, the GI50 [7] was > 100 µM, the TGI [7] was > 100 µM and the GI50 [8] was > 100 µM. The TGI [8] was > 100 µM, the GI50 [9] was > 100 µM and the TGI [9] was > 100 µM.

For Oc1ccc(Br)cc1C=Nc1ccc(Oc2ccc(N=Cc3cc(Br)ccc3O)cc2)cc1, the TGI [1] was > 19.6 µM, the TGI [2] was > 19.6 µM and the TGI [3] was > 19.6 µM. For the same molecule, the TGI [4] was > 19.6 µM, the TGI [5] was > 19.6 µM and the TGI [6] was > 19.6 µM. For the same molecule, the TGI [7] was > 19.6 µM, the TGI [8] was > 19.6 µM and the TGI [9] was > 19.6 µM.
